In paper PMC9841524, “Structure-Based Rational Design of Small α-Helical Peptides with Broad-Spectrum Activity against Multidrug-Resistant Pathogens” (Journal of Medicinal Chemistry, 2022):
Like-named read-outs stand apart in the source and are kept apart here. Where no end group is shown, it is not given here.

What was measured:
[1] = system: K. pneumoniae (ATCCBAA-1705); assay: MIC, standard microtiter dilution (CLSI); type: cell-based, Klebsiella pneumoniae; conditions: broth microdilution (CLSI), CAMHB, 37 °C, 24 h
Outline: (§1)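 Inoculum 10^6 CFU/mL in CAMHB against 2-fold peptide series; salt variants used 150 mM NaCl, 4.5 mM KCl, 6 mM NH4Cl, 1 mM MgCl2, 2 mM CaCl2, or 25% FBS.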

[2] = Relative hydrophobicity as RP-HPLC retention time; type: physicochemical; conditions: chromatographic, Phenomenex Luna C18 4 μm 150 × 4.6 mm, linear AB gradient 1% acetonitrile/min, 0.3 mL/min, A water 0.1% TFA, B acetonitrile 0.1% TFA, 25 °C
Protocol: The purity analysis of the peptides was conducted on a RP-HPLC system (Shimadzu; LC-20ADXR) by using a Phenomenex (Luna) analytical C18 column (4 μm, 150 × 4.6 mm). The mass of the purified peptides was determined in the positive-ion mode using Q-TOF LC/MS (Compass Hystar 4.1, Bruker, USA). The purity (>95%) and mass data of all the synthesized peptides are provided in the Supporting Information.
8. Comparative Hydrophobicity analysis
The purity of all synthesized peptides was determined using reverse phase analytical HPLC
(Shimadzu; LC-20ADXR). Below mentioned are the conditions used to conduct the purity
Column: Phenomenex (Luna), 4 um, C18, 150 × 4.6 mm
Mobile Phase: Buffer A-Water containing 0.1% TFA,
Buffer B-Acetonitrile containing 0.1% TFA
Figure S52. HPLC chromatogram of 6a.
(1 picture or pasted object on this page, not shown here)

[3] = system: human red blood cells (hRBCs); assay: Hemolytic assay; type: cell-based; conditions: 2 h, 37 °C
Outline: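 Percent hemolysis uses PBS as 0% and 1% Triton X-100 as 100% references, from supernatant absorbance at 567 nm. Red cells (4% in PBS, equal volume) exposed 2 h at 37 °C without agitation to 2-fold serially diluted peptide.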

[4] = system: P. aeruginosa (ATCC 27883); assay: MIC, standard microtiter dilution (CLSI); type: cell-based, Pseudomonas aeruginosa; conditions: broth microdilution (CLSI), CAMHB, 37 °C, 24 h
Outline: as §1

S. aureus (ATCC 29213) = assay: MIC, standard microtiter dilution (CLSI); type: cell-based; conditions: for MIC, S. aureus (ATCC 29213): broth microdilution (CLSI), CAMHB, 37 °C, 24 h
Outline: as §1

MRSA (ATCC BAA-1556) = conditions: broth microdilution (CLSI), CAMHB, 37 °C, 24 h
Outline: as §1

E. coli (ATCC 25922) = conditions: broth microdilution (CLSI), CAMHB, 37 °C, 24 h
Outline: as §1

[5] = CD spectroscopy, helicity; type: physicochemical; set-up: key to Δ[θ]222 induced by TFE / Δ[θ]222 induced by Liposomes: mean residue molar ellipticity, mdeg cm2/(dmol × res); conditions: for [θ]222 mean residue molar ellipticity, TFE / [θ]222 mean residue molar ellipticity, Liposomes / [θ]222 mean residue molar ellipticity, PBS: CD at 222 nm, 25 °C; for [θ]222 mean residue molar ellipticity, TFE: aqueous buffer containing 50% TFE; for [θ]222 mean residue molar ellipticity, Liposomes / Δ[θ]222 induced by Liposomes: bacterial membrane mimicking liposomes; for [θ]222 mean residue molar ellipticity, Liposomes: peptide:lipid molar ratio 1:1.05; for [θ]222 mean residue molar ellipticity, PBS: phosphate buffer saline pH 7.0; for Δ[θ]222 induced by TFE / Δ[θ]222 induced by Liposomes: difference to PBS; for Δ[θ]222 induced by TFE: 50% TFE; for % of helicity induced by TFE: increase in molar ellipticity at 222 nm in the presence of 50% TFE; for % of helicity induced by Liposomes: increase in molar ellipticity at 222 nm in the presence of liposomes;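 as to % of helicity induced by Liposomes: share of the total helicity with liposomes gained over the same peptide in PBS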;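 as to % of helicity induced by TFE: share of the total helicity in TFE gained over the same peptide in PBS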
Protocol: The CD spectra of peptides were recorded using a Jasco J-1500 CD spectrophotometer (Jasco, Easton, MD) at 25 °C with a 1 mm path length cell. Wavelengths from 190 to 260 nm were scanned with 1.0 nm step resolution, 100 nm/min speed, 0.4 s response time, and 1 nm bandwidth. CD spectra of the peptides were collected and averaged over three scans in 10 mM sodium phosphate buffer (pH 7.2), helix-inducing solvent 50% TFE (v/v), and bacterial mimic liposomes (75 μM lipid). Spectra were corrected by subtracting a baseline spectrum containing only buffer or 50% TFE or liposomes. The mean residue molar ellipticity was calculated using the formula [drawing 3] where Ab222 is the absorbance observed at 222 nm, MRW is the mean residue molecular weight, C is the concentration in mg/mL, and L is the path length.
Table S1. RP-HPLC retention times and CD spectroscopy analysis of the selected peptides Peptide tR (min)a [θ]222b Δ[θ]222 induced by % of helicity inducedc by PBS TFE Liposomes TFE Liposomes TFE Liposomes […]
atR (min) denotes the retention time at 25°C by RP-HPLC. bThe mean residue molar ellipticity [θ] 222 (mdeg cm2/(dmol × res)) at 222 nm was measured at 25 °C in phosphate buffer saline (PBS, pH 7.0), in aqueous buﬀer containing 50% TFE (TFE), or in presence of bacterial membrane mimicking liposomes (peptide:lipid […]
c% helix induced is the increase in the molar ellipticity at 222 nm (in percentage) of a peptide in the presence of TFE or liposomes.

[6] = 10^6 CFU/mL, highest MIC of three independent experiments in triplicate
[7] = hRBC suspension 4% in PBS, hemoglobin release at 567 nm, 1% Triton X-100 = 100%
[8] = value in parentheses (μM), hRBC 4% in PBS, 567 nm

Row | Substance | MIC, K. pneumoniae (ATCCBAA-1705) [1, 6] [µg/mL] | MIC, K. pneumoniae (ATCCBAA-1705) ([1]; value in parentheses (μM)) [µM] | tR, RP-HPLC retention time (measure of overall hydrophobicity) [2] [min] | HC50 (concentration at which 50% hemolysis was observed) [3, 7] [µg/mL] | HC50 (concentration at which 50% hemolysis was observed) [3, 8] [µM] | MIC, P. aeruginosa (ATCC 27883) [4, 6] [µg/mL] | MIC, P. aeruginosa (ATCC 27883) ([4]; value in parentheses (μM)) [µM] | MIC, S. aureus (ATCC 29213) (S. aureus (ATCC 29213); [6]) [µg/mL] | MIC, S. aureus (ATCC 29213) (S. aureus (ATCC 29213); value in parentheses (μM)) [µM] | MIC, MRSA (ATCC BAA-1556) (MRSA (ATCC BAA-1556); [6]) [µg/mL] | MIC, MRSA (ATCC BAA-1556) (MRSA (ATCC BAA-1556); value in parentheses (μM)) [µM] | MIC, E. coli (ATCC 25922) (E. coli (ATCC 25922); [6]) [µg/mL] | MIC, E. coli (ATCC 25922) (E. coli (ATCC 25922); value in parentheses (μM)) [µM] | [θ]222 mean residue molar ellipticity, TFE [5] | [θ]222 mean residue molar ellipticity, Liposomes [5] | [θ]222 mean residue molar ellipticity, PBS [5] | Δ[θ]222 induced by TFE [5] | Δ[θ]222 induced by Liposomes [5] | % of helicity induced by TFE [5] [%] | % of helicity induced by Liposomes [5] [%] | also measured
1 | KWLKKWWKWWKK-NH2 [8e] | 25 | 13.66 | 34.10 | 240 | 131.13 | 12.5 | 6.83 | 12.5 | 6.83 | 12.5 | 6.83 | 12.5 | 6.83 | -11148 mdeg cm2/(dmol × res) | -15042 mdeg cm2/(dmol × res) | -5411 mdeg cm2/(dmol × res) | -5736 | -9630 | 51.45 | 64.02 | 
2 | RWARRWARWWRR-NH2 [6a] | > 100 | > 54.31 | 30.42 | 230 | 124.92 | 100 | 54.31 | 50 | 27.16 | 50 | 27.16 | > 100 | > 54.31 | -13346 mdeg cm2/(dmol × res) | -13245 mdeg cm2/(dmol × res) | -6737 mdeg cm2/(dmol × res) | -6608 | -6508 | 49.51 | 49.13 | MIC against S. aureus (S. aureus (ATCC 29213)): 50 µg/mL; increase in helicity in the presence of liposomes, as compared to PBS ([5]; CD): about 50%
